Measurements from the NIST ThermoML archive (doi:10.1016/j.tca.2018.08.017).
Values joined by “and” are separate entries in the source; they are usually repeats but may differ in a detail not shown here. Equal entries are not always repeated. Numbers after ± are expanded uncertainties.

Conditions: 101.33 kPa, Liquid

CCCCCCCCCCCCCCCCCC [octadecane]
viscosity
Conditions	Concentric cylinders viscometry	Cone and plate viscometry
309.68 K	3.276 ± 0.18 mPa·s	–
309.75 K	–	3.24 ± 0.16 mPa·s
309.85 K	–	3.3 ± 0.42 mPa·s
309.95 K	–	3.22 ± 0.16 mPa·s and 3.2 ± 0.3 mPa·s
310.04 K	3.245 ± 0.18 mPa·s	–
310.15 K	–	3.21 ± 0.15 mPa·s and 3.28 ± 0.41 mPa·s and 3.42 ± 0.69 mPa·s
310.25 K	–	3.18 ± 0.3 mPa·s
310.32 K	3.229 ± 0.17 mPa·s	–
310.35 K	–	3.22 ± 0.15 mPa·s and 3.26 ± 0.41 mPa·s
310.41 K	3.218 ± 0.17 mPa·s	–
310.55 K	–	3.18 ± 0.15 mPa·s
310.65 K	–	3.25 ± 0.41 mPa·s and 3.14 ± 0.3 mPa·s and 3.38 ± 0.68 mPa·s
310.75 K	–	3.17 ± 0.15 mPa·s
310.77 K	3.19 ± 0.17 mPa·s	–
310.85 K	–	3.24 ± 0.41 mPa·s
310.95 K	–	3.15 ± 0.15 mPa·s and 3.12 ± 0.3 mPa·s
311.04 K	3.171 ± 0.17 mPa·s	–
311.15 K	–	3.14 ± 0.15 mPa·s and 3.22 ± 0.41 mPa·s and 3.35 ± 0.67 mPa·s
311.16 K	3.159 ± 0.17 mPa·s	–
311.35 K	–	3.14 ± 0.15 mPa·s and 3.2 ± 0.4 mPa·s and 3.1 ± 0.3 mPa·s
311.54 K	3.13 ± 0.17 mPa·s	–
311.55 K	–	3.14 ± 0.15 mPa·s
311.65 K	–	3.19 ± 0.4 mPa·s and 3.32 ± 0.67 mPa·s
311.75 K	–	3.12 ± 0.15 mPa·s and 3.07 ± 0.29 mPa·s
311.78 K	3.118 ± 0.17 mPa·s	–
311.85 K	–	3.17 ± 0.4 mPa·s
311.95 K	–	3.11 ± 0.15 mPa·s
311.96 K	3.099 ± 0.17 mPa·s	–
312.05 K	–	3.05 ± 0.29 mPa·s
312.15 K	–	3.1 ± 0.15 mPa·s and 3.15 ± 0.4 mPa·s and 3.28 ± 0.66 mPa·s
312.33 K	3.071 ± 0.17 mPa·s	–
312.35 K	–	3.1 ± 0.15 mPa·s and 3.14 ± 0.4 mPa·s
312.45 K	3.065 ± 0.17 mPa·s	3.04 ± 0.29 mPa·s
312.55 K	–	3.07 ± 0.15 mPa·s
312.65 K	–	3.12 ± 0.39 mPa·s and 3.26 ± 0.65 mPa·s
312.69 K	3.043 ± 0.17 mPa·s	–
312.75 K	–	3.07 ± 0.15 mPa·s and 3.01 ± 0.29 mPa·s
312.85 K	–	3.1 ± 0.39 mPa·s
312.95 K	–	3.07 ± 0.15 mPa·s
313.15 K	–	3.04 ± 0.27 mPa·s [middle of 6 runs]
313.18 K	3.011 ± 0.16 mPa·s and 3.01 ± 0.16 mPa·s	–
313.24 K	3.009 ± 0.16 mPa·s	–
313.25 K	3.009 ± 0.16 mPa·s	–
313.26 K	3.008 ± 0.16 mPa·s and 3.011 ± 0.16 mPa·s	–
313.34 K	3.01 ± 0.16 mPa·s	–
313.35 K	–	3.01 ± 0.15 mPa·s and 3.07 ± 0.39 mPa·s
313.45 K	–	2.98 ± 0.28 mPa·s
313.55 K	2.985 ± 0.16 mPa·s	3.01 ± 0.14 mPa·s
313.65 K	–	3.05 ± 0.38 mPa·s and 3.21 ± 0.64 mPa·s
313.75 K	–	3.01 ± 0.14 mPa·s
313.85 K	–	3.04 ± 0.38 mPa·s and 2.96 ± 0.28 mPa·s
313.93 K	2.956 ± 0.16 mPa·s	–
313.95 K	–	3 ± 0.14 mPa·s
314 K	2.951 ± 0.16 mPa·s	–
314.15 K	–	2.99 ± 0.14 mPa·s and 3.02 ± 0.38 mPa·s and 3.18 ± 0.64 mPa·s
314.25 K	–	2.93 ± 0.28 mPa·s
314.3 K	2.931 ± 0.16 mPa·s	–
